Holding throughout (format): in vivo, Balb/c mice
The test system of one experiment is IFN-γ. The experiment can be described thus: IFN-γ level in oxazolone-induced colitis mice (cytometric bead array). Conditions: Day 9, PO BID 5 days, compound A30 1, 5 or 25 mg/kg, tofacitinib 10 mg/kg; for IFN-γ level (intestinal mucosa): FIG. 8; for IFN-γ level (serum): FIG. 10. Here is the method:
(§1) Compound A30 was evaluated in an oxazolone-induced colitis murine model, along with tofacitinib. Boirivant et al., J. Exp. Med. 1998, 188, 1929-39. Balb/c mice were randomly divided into 6 groups according to Table 1:4 treatment groups (Treatment Groups), 1 vehicle group (Vehicle Group), and 1 sham group (Sham Group). The mice in Treatment and Vehicle Groups were sensitized with 200 μL of 2% oxazolone in acetone and olive oil (1:4), followed by injection of 100 μL of 1.5% oxazolone into the rectum of each mouse on Day 5 after sensitization. The mice in Sham Group were sensitized with 200 μL of a mixture of acetone and olive oil (1:4) without oxazolone, followed by injection of 100 μL of 50% ethanol/water into the rectum of each mouse on Day 5 after sensitization. Before the injection into the rectum, each mouse was anesthetized intraperitoneally with tribromoethanol (0.3 mL, 1.25%). From Days 4 to 8 after sensitization, the mice in Sham and Vehicle Groups were each given 0.5% CMC-Na by gavage, and the mice in Treatment Groups were each given by gavage tofacitinib or compound A30 in 0.5% CMC-Na, respectively, according to the dosing schedule shown in Table 1.
(§2) On Day 9 after sensitization, each mouse was euthanized and blood was collected from the heart. A serum was prepared and frozen for the determination of inflammatory factors.
(§3) The colon of each mouse was collected and photographed, and the colon length was measured and weighed after the removal of the content of the colon. A part of each colon collected was fixed using the Swiss roll technique in neutral paraformaldehyde for pathological scoring (Table 3) as described in Bialkowska et al., J. Vis. Exp. 2016, 113, e54161. The rest of the colon mucosa of each mouse was scraped and frozen for the determination of inflammatory factors.
(§4) The IFN-γ and TNFα levels were analyzed using a BD™ cytometric bead array (CBA) kit.

Another experiment has as its system TNF-α. The experiment can be described thus: TNF-α level in oxazolone-induced colitis mice (cytometric bead array). Conditions: Day 9, PO BID 5 days, compound A30 1, 5 or 25 mg/kg, tofacitinib 10 mg/kg; for TNF-α level (intestinal mucosa): FIG. 7; for TNF-α level (serum): FIG. 9. The procedure: as §1, §2, §3, §4
The test system of experiment [1] is oxazolone-induced colitis mice. The experiment can be described thus: Oxazolone-induced acute colitis in mice for ulcerative colitis (bodyweight, DAI, colon weight, length and density). Conditions: PO BID 5 days, compound A30 1, 5 or 25 mg/kg, tofacitinib 10 mg/kg; for colon weight / colon length / colon density: Day 9 after sensitization; for colon weight: FIG. 3; for colon length: FIG. 4; for colon density: FIG. 5; for bodyweight change: FIG. 1; for DAI score: FIG. 2. Here is the method:
as §1
The bodyweight of each mouse was measured daily. From Day 4 after sensitization, the fecal property and occult blood as determined with a fecal occult blood test (FOBT) of each mouse were measured daily to calculate a disease activity index (DAI) according to Table 2.
as §2, §3
Due to the inflammation, it is expected that the colon of an oxazolone-induced colitis mouse has an […], and increased density.

In the case of `C[P@](=O)(CCc1cc(Cl)c(C(=O)N[C@@H](Cc2cccc(S(C)(=O)=O)c2)C(=O)O)c(Cl)c1)c1cccc(O)c1` [compound A30, (S)-2-(2,6-dichloro-4-(2-((S)-(3-hydroxyphenyl)(methyl)phosphoryl)ethyl)benz-amido)-3-(3-(methylsulfonyl)phenyl)propanoic acid], in the experiment with IFN-γ, the “IFN-γ level (intestinal mucosa)” value was “lowered” and the “IFN-γ level (serum)” value was “lowered”. Moreover, in the experiment on TNF-α, the “TNF-α level (intestinal mucosa)” value was “lowered” and the “TNF-α level (serum)” value is “lowered”. Besides, in experiment [1], the colon weight result is “able to reverse the disease effects”, the colon length result is recorded as “able to reverse the disease effects”, the colon density result was “able to reverse the disease effects” and the bodyweight change result is on record as “slowed the bodyweight loss”. In addition, the DAI score result in experiment [1] was “improved the DAI score”.
For `C[C@@H]1CCN(C(=O)CC#N)C[C@@H]1N(C)c1ncnc2[nH]ccc12` [tofacitinib], in the experiment with IFN-γ, the “IFN-γ level (intestinal mucosa)” value is listed as “lowered” and the “IFN-γ level (serum)” value is “lowered”. For the same compound, in the experiment on TNF-α, the “TNF-α level (intestinal mucosa)” value is “lowered” and the “TNF-α level (serum)” value is “lowered”. For the same compound, in experiment [1], the colon weight entry is “able to reverse the disease effects”, the colon length entry was “able to reverse the disease effects”, the colon density result is listed as “able to reverse the disease effects” and the bodyweight change result is given as “slowed the bodyweight loss”. In addition, the DAI score result in experiment [1] is recorded as “improved the DAI score”.

The values are drawn from patent US20260294940A1, “PHOSPHORUS-CONTAINING COMPOUNDS FOR TREATING INFLAMMATORY BOWEL DIESEASE” (VivaVision Biotech, Inc., priority 2022, published 2026).
